What was measured:
[1] = test system: human Du145 prostate tumor xenograft; assay: Du145 prostate tumor xenograft, combination with taxol; assay type: in vivo, mouse; conditions: Du145, oral once daily 14 days with taxol 60 mg/kg i.v.
Experimental: Antitumor studies were done using human Du145 prostate tumor xenograft model in male BALBc/A nude mice (from Japan Crea Inc., Japan). Male nude mice were used at age 8-10 weeks. Human carcinoma cells were injected subcutaneously in the animal flank and allowed to form solid tumors. Tumor fragments (about 2 mm^2 fragments) were then removed and implanted subcutaneously to the right flank of other animals. When the tumor sizes reached about 100 to 200 mm^3, recipient animals were treated with Compound D, Compound E, Compound F, Compound G or Compound H (suspended with 0.5% HPMC) by oral administration alone, or taxol by i.v. injection (60 mg/kg), or combination of taxol with oral administration of Compound D, Compound E, Compound F, Compound G, Compound H. Typically, taxol was administered once per week by iv injection on the first day as a single administration, while Compound D, Compound E, Compound F, Compound G, or Compound H were administered once daily for 14 days. Tumor volumes and gross body weight of animals were monitored twice weekly for up to 2 weeks. Each experimental group contained at least 6 animals.

[2] = test system: recombinant human HDAC enzymes; assay: HDAC isotype selectivity across recombinant HDAC enzymes; assay type: biochemical; conditions: from Table 1
Excerpt: cDNAs of human HDAC1-8 and 11 were generated by RT-PCR reactions using primers complementary to the 5′ and 3′ coding sequence of human HDAC gene sequences in GenBank. cDNAs corresponding to the full length human HDAC1, 2, 3 and 11 were cloned into pBlueBac4.5 vector (Invitrogen). The constructs were used to generate recombinant baculoviruses using the Bac-N-Blue™ DNA according to the manufacturer's instructions (Invitrogen). The recombinant HDAC1, 2, 3, 11 proteins produced harbor a FLAG tag at their C-termini. cDNAs encoding truncated versions of HDAC4, 5 and 7 encompassing their deacetylase domains were cloned into pDEST10 as an N-terminal hexahistidine fusion protein and recombinant baculoviruses were generated using the Bac-to-Bac™ Baculovirus expression system (Invitrogen). HDAC6 and 8 were cloned as full length N-terminally His-tagged protein. All HDAC proteins were expressed in insect Sf-9 cells (Spodoptera frugiperdai) upon infection with recombinant baculovirus. HDAC1 enzyme was purified from the Q-sepharose FF column (Amersham Pharmacia Biotech, Baie d'Urfe QC, Canada) followed by an anti-FLAG immunoaffinity column (Sigma). […] HDAC4, 5, 6, 7 and 8 were purified using either Ni-NTA resin (QIAGEN Mississauga ON, Canada) or His-Select resin (Sigma) with step washes and elution with different concentrations of imidazole in Buffer containing 25 mM Tris (or NaPO4) pH 8.0, 10% glycerol and 150 mM or 500 mM NaCl.
Boc-Lys(Ac)-AMC (for HDAC1, 2, 3, 6, and 8 enzymes), which was purchased from Bachem Biosciences Inc., (King of Prussia, Philadelphia) were added into enzyme-compound mixture and incubated at 37° C. For HDAC4, 5, 7 assays, Boc-Lys(TFA)-AMC, which was synthesized in house, was used as substrate and 0.1% BSA was added to the buffer. […] Reaction time was predetermined to ensure that reaction was linear for the incubation time. Reaction was stopped by adding a freshly prepared trypsin (1 mg/ml final concentration) with 1 μM TSA (Biomol) in assay buffer. After 30 minutes, fluorescence was measured using a fluorometer (SPECTRAMAX GeminiXS, Molecular Devices, Sunnylvale, Calif.).

HDAC3 = molecular target: T1, HDAC3 (Homo sapiens, UniProt O15379); assay: Fluorescence-based HDAC enzyme assay, recombinant HDAC3; assay type: biochemical; conditions: recombinant human HDAC enzyme in vitro; read-out: IC50 (μM) HD3
T1 construct: cDNAs corresponding to the full length human HDAC1, 2, 3 and 11 were cloned into pBlueBac4.5 vector; FLAG (C); made in house; host or cells: Sf-9 insect cells (baculovirus)
Excerpt: cDNAs of human HDAC1-8 and 11 were generated by RT-PCR reactions using primers complementary to the 5′ and 3′ coding sequence of human HDAC gene sequences in GenBank. cDNAs corresponding to the full length human HDAC1, 2, 3 and 11 were cloned into pBlueBac4.5 vector (Invitrogen). The constructs were used to generate recombinant baculoviruses using the Bac-N-Blue™ DNA according to the manufacturer's instructions (Invitrogen). The recombinant HDAC1, 2, 3, 11 proteins produced harbor a FLAG tag at their C-termini. cDNAs encoding truncated versions of HDAC4, 5 and 7 encompassing their deacetylase domains were cloned into pDEST10 as an N-terminal hexahistidine fusion protein and recombinant baculoviruses were generated using the Bac-to-Bac™ Baculovirus expression system (Invitrogen). HDAC6 and 8 were cloned as full length N-terminally His-tagged protein. All HDAC proteins were expressed in insect Sf-9 cells (Spodoptera frugiperdai) upon infection with recombinant baculovirus. HDAC1 enzyme was purified from the Q-sepharose FF column (Amersham Pharmacia Biotech, Baie d'Urfe QC, Canada) followed by an anti-FLAG immunoaffinity column (Sigma). HDAC2, 3 and 11 were purified using Flag-antibody immunoaffinity purification. HDAC4, 5, 6, 7 and 8 were purified using either Ni-NTA resin (QIAGEN Mississauga ON, Canada) or His-Select resin (Sigma) with step washes and elution with different concentrations of imidazole in Buffer containing 25 mM Tris (or NaPO4) pH 8.0, 10% glycerol and 150 mM or 500 mM NaCl.
Recombinant HDAC enzymes were incubated with diluted compounds in assay buffer (25 mM Hepes, pH 8.0, 137 mM NaCl, 1 mM MgCl2 and 2.7 mM KCl) for 10 minutes at ambient temperatures in black 96-well plate. Boc-Lys(Ac)-AMC (for HDAC1, 2, 3, 6, and 8 enzymes), which was purchased from Bachem Biosciences Inc., (King of Prussia, Philadelphia) were added into enzyme-compound mixture and incubated at 37° C. […] After 30 minutes, fluorescence was measured using a fluorometer (SPECTRAMAX GeminiXS, Molecular Devices, Sunnylvale, Calif.). […]

[3] = test system: TSP-1 (THBS1) transcription in human cancer HCT15 cells; assay: Microarray analysis of TSP-1 (THBS1) transcription in HCT15 cells; assay type: cell-based; conditions: HCT15 cells in vitro, 24 hours
Excerpt: Total RNAs were extracted and RNA quality analysis was done using Agilent 2100 bioanalyzer and Agilent's RNA Labchip kits. RNAs were labeled with either Cy3 or Cy5 using Agilent's optimized labeling kits and hybridized to Human whole genome 44K Oligo Microarray (Agilent, Palo Alto, Calif.). Slides were scanned using DNA microarry scanner from Agilent and the raw data was extracted using Agilent's image analysis tool (feature extraction software). Normalization and statistical analysis were performed using GeneSpring software. Biological analysis was performed using Biointerpreter software.

T1 sequence (O15379 whole entry): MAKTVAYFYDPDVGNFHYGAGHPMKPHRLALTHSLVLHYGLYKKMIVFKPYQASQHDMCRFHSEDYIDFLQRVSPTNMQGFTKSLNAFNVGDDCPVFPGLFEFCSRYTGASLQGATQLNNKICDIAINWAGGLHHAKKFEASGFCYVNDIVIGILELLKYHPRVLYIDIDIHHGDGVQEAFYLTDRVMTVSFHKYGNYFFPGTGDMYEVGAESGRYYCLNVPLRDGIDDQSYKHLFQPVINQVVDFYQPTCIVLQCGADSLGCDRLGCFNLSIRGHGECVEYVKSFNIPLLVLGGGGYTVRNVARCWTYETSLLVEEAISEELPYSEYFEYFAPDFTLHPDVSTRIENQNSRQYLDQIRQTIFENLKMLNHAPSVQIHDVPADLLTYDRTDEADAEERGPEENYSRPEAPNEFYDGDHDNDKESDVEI

SMILES	antitumor activity of taxol [1]	HDAC isotype selectivity [2]	IC50 (HDAC3) [µM]	TSP-1 (THBS1) transcription [3]
Nc1ccc(-c2ccccc2)cc1NC(=O)c1ccc(N2CCC(N)CC2)cc1 [Compound E]	Potentiation	selective for HDAC1 and HDAC 2		
Nc1ccc(-c2ccccc2)cc1NC(=O)c1ccc(N2CC[C@H](N)C2)cc1 [Compound D]	Potentiation	selective for HDAC1 and HDAC 2	9	
Nc1ccccc1NC(=O)c1ccc(CNc2nccc(-c3cccnc3)n2)cc1 [Compound A]				induction
CN1CCN(c2ccc(C(=O)Nc3cc(-c4ccncc4)ccc3N)cc2)CC1 [Compound G]	Potentiation	selective for HDAC1 and HDAC 2		
CN1CCN(c2ccc(C(=O)Nc3cc(-c4ccccn4)ccc3N)cc2)CC1 [Compound F]	Potentiation	selective for HDAC1 and HDAC 2		
CC(C)N1CCN(c2ccc(C(=O)Nc3cc(-c4ccncc4)ccc3N)cc2)CC1 [Compound H]	Potentiation	selective for HDAC1 and HDAC 2		
Nc1ccccc1NC(=O)c1ccc(N2CC[C@H](Nc3cccnc3)C2)cc1 [Compound B]		selective inhibitors of HDAC1, 2 and 3	0.3	induction
